Test [1] concerns the target T1, HER2 wildtype (WT) protein (Homo sapiens, UniProt P04626).
T1 construct: BT474 and N87 cell lines which endogenously overexpress the HER2 wildtype (WT) protein; endogenous in cells; host or cells: BT474, N87
In words: HER2 signaling (pHER2 Tyr1248/total HER2 MSD) in BT474 cells. It counts as cell-based. Particulars: 1.5 hr compound, 1% FBS. The method, boiled down: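 BT474, N87 (HER2 WT) and NCI-H1781 (HER2 G776delinsVC) cells were treated for 1.5 h at 37° C in 1% FBS medium with compound at 0.0005–1.1 μM. pHER2 Tyr1248 was measured by MSD on whole-cell lysates and normalized to total HER2 as % DMSO. EC50 came from a variable-slope sigmoidal fit.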

The target in another test is EGFR (Homo sapiens, UniProt P00533). In words: EGFR signaling (pEGFR Tyr1068/total EGFR MSD) in A431 cells. Further details: endogenous in cells; host or cells: A431, N87. The class given is cell-based. Particulars: for EC50: A431 cells, read-out: A431 pEGFR EC50; for Selectivity A431 EC50/BT474 EC50: ratio A431 pEGFR EC50 to BT474 pHER2 EC50; for Selectivity A431 EC50/HEKYVMA EC50: ratio A431 pEGFR EC50 to HEK YVMA pHER2 EC50. The method, boiled down:
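EC50 was fitted with variable Hill slope from MSD pTyr1068/total EGFR ratios, expressed as % DMSO control. A431 cells were starved overnight, then exposed 1.5 h to eight concentrations from 10 to 0.005 μM in 1% FBS before a 10-min 100 ng/mL EGF pulse.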

Sequence of EGFR (P00533 25-1210): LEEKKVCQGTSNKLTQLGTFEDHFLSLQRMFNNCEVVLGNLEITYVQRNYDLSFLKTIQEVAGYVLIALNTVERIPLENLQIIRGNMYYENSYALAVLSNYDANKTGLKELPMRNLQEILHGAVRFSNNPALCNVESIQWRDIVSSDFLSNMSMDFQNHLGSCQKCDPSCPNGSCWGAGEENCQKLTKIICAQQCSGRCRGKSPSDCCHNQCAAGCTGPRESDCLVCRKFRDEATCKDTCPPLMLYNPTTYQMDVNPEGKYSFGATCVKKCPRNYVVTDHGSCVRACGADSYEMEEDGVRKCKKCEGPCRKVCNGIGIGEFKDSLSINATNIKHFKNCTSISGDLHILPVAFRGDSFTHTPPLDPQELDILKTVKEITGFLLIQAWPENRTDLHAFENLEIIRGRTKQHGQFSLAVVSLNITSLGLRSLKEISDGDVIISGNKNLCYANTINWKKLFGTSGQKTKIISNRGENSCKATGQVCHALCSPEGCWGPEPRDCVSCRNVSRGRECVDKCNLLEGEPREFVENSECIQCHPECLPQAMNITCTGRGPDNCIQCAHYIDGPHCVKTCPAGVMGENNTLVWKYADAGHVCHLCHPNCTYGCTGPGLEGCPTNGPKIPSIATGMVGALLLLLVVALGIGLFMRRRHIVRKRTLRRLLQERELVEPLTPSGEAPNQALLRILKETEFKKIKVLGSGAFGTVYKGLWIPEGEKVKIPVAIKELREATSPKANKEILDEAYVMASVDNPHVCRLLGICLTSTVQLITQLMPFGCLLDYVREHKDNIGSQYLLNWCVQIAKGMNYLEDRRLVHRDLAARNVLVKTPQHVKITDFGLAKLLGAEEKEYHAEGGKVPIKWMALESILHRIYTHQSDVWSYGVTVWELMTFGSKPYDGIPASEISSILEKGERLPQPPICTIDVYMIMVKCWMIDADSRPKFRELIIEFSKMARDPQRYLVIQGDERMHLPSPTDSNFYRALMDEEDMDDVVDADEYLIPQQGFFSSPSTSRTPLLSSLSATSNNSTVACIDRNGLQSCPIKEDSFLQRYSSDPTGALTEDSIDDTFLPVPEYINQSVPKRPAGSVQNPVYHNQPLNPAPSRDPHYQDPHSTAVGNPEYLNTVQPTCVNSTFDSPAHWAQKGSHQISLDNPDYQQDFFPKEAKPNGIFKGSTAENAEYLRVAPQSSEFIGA
T1 sequence (P04626 23-1255): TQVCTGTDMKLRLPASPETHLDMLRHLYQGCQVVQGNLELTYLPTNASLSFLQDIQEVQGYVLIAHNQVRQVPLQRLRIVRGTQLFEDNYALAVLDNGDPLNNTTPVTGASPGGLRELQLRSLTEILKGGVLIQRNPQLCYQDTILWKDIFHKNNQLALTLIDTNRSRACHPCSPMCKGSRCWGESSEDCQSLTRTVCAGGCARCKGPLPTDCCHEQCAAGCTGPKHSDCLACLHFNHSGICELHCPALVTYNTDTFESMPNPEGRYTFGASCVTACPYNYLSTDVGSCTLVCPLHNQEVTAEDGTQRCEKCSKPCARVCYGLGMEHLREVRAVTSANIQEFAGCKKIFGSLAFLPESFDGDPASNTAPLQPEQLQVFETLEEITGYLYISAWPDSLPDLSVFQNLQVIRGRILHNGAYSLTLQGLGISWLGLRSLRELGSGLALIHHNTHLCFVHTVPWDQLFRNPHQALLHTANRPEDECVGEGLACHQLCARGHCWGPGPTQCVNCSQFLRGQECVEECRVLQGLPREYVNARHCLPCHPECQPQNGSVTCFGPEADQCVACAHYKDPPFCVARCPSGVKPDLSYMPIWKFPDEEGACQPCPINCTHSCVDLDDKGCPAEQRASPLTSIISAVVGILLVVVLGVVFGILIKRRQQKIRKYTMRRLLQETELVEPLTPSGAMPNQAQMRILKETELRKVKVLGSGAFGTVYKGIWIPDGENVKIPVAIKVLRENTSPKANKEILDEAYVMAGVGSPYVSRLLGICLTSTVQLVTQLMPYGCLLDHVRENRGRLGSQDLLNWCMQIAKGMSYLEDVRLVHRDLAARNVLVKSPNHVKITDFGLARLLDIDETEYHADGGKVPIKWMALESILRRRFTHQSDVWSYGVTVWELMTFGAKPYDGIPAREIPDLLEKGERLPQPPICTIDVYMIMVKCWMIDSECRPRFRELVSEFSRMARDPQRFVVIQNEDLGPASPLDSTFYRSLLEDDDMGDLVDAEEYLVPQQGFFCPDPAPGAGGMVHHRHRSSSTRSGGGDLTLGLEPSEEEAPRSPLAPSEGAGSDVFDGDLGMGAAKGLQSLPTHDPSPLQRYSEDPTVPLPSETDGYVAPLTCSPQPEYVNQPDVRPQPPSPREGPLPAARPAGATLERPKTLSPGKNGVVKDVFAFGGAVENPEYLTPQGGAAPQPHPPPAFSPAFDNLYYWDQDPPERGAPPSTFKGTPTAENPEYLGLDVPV

As usually defined, the EC50 is the concentration that produces a half-maximal response. In test [1], `Cc1cc(Nc2ncnc3sc4c(c23)CCN(C(=O)/C=C/CN(C)C)C4)ccc1Oc1cccc(B(O)O)c1` [Compound 64, (E)-(3-(4-((7-(4-(dimethylamino)but-2-enoyl)-5,6,7,8-tetrahydropyrido[4′,3′:4,5]thieno[2,3-d]pyrimidin-4-yl)amino)-2-methylphenoxy)phenyl)boronic acid] returned a half-maximal effective concentration (EC50) below 100 nM. Moreover, on EGFR, the EC50 is 100 to 1000 nM; the “Selectivity A431 EC50/BT474 EC50” value is “C (C: ≥ 10 and < 20)”; the “Selectivity A431 EC50/HEKYVMA EC50” value was “E (E: >1 and < 5)”.

Take `Cc1cc(Nc2ncnc3sc4c(c23)CCN(C(=O)/C=C/CN2CC(C)OC(C)C2C)C4)ccc1Oc1ccc2ncnn2c1` (centres unmarked) [Compound 83]: in test [1], the EC50 is below 100 nM. At EGFR, the half-maximal effective concentration (EC50) lay in the range of 1000 to 10000 nM; the “Selectivity A431 EC50/BT474 EC50” value is reported as “A (A: ≥100)”; the “Selectivity A431 EC50/HEKYVMA EC50” value was “B (B: ≥ 20 and < 100)”.

Consider `C=CC(=O)N1CCc2[nH]c3ncnc(Nc4ccc(Oc5ccc(C)nc5)c(C)c4)c3c2C1` [Compound 94, 1-(4-((3-methyl-4-((6-methylpyridin-3-yl)oxy)phenyl)amino)-7,8-dihydro-5H-pyrido[3′,4′:4,5]pyrrolo[2,3-d]pyrimidin-6(9H)-yl)prop-2-en-1-one], for which the EC50 in test [1] is below 100 nM. Besides, at EGFR, the half-maximal effective concentration (EC50) was 100 to 1000 nM; the “Selectivity A431 EC50/BT474 EC50” value is “C (C: ≥ 10 and < 20)”; the “Selectivity A431 EC50/HEKYVMA EC50” value is “E (E: >1 and < 5)”.

Turning to `Cc1cc(Nc2ncnc3sc4c(c23)CCN(C(=O)/C=C/CN(C)C)C4)ccc1Oc1ccc2nonc2c1` [Compound 104, (E)-1-(4-((4-(Benzo[c][1,2,5]oxadiazol-5-yloxy)-3-methylphenyl)amino)-5,6-dihydropyrido[4′,3′:4,5]thieno[2,3-d]pyrimidin-7(8H)-yl)-4-(dimethylamino)but-2-en-1-one], the EC50 in test [1] is below 100 nM. For the same molecule, at EGFR, the EC50 is below 100 nM; the “Selectivity A431 EC50/BT474 EC50” value was “D (D: ≥ 5 and < 10)”; the “Selectivity A431 EC50/HEKYVMA EC50” value was “D (D: ≥ 5 and < 10)”.

`O=C(/C=C/CN1CC2CC1CO2)N1CCc2c(sc3ncnc(Nc4ccc(Oc5ccc6ncnn6c5)c(Cl)c4)c23)C1` (centres unmarked) [Compound 87] registered a 50% effective concentration (EC50) in test [1] below 100 nM. On EGFR, the EC50 was below 100 nM; the “Selectivity A431 EC50/BT474 EC50” value is “B (B: ≥ 20 and < 100)”; the “Selectivity A431 EC50/HEKYVMA EC50” value is “D (D: ≥ 5 and < 10)”.

In test [1], `Cc1ccc(Oc2ccc(Nc3ncnc4sc5c(c34)CCN(C(=O)/C=C/CNCCS(C)(=O)=O)C5)cc2C)cn1` [Compound 45] had an EC50 below 100 nM. Besides, at EGFR, the 50% effective concentration (EC50) was in the range of 100 to 1000 nM; the “Selectivity A431 EC50/BT474 EC50” value was “C (C: ≥ 10 and < 20)”; the “Selectivity A431 EC50/HEKYVMA EC50” value was “D (D: ≥ 5 and < 10)”.

The molecule `O=C(/C=C/CN1CC2CCC(C2)C1)N1CCc2c(sc3ncnc(Nc4ccc(Oc5ccc6ncnn6c5)c(Cl)c4)c23)C1` [Compound 88] showed a concentration for a half-maximal effect (EC50) in test [1] below 100 nM. On EGFR, the EC50 is below 100 nM; the “Selectivity A431 EC50/BT474 EC50” value is “C (C: ≥ 10 and < 20)”; the “Selectivity A431 EC50/HEKYVMA EC50” value is “C (C: ≥ 10 and < 20)”.

On to `Cc1ccc(Oc2ccc(Nc3ncnc4sc5c(c34)CCN(C(=O)/C=C/CN3CCC4(CCOC4)C3)C5)cc2C)cn1` (centres unmarked) [Compound 67], for which, in test [1], the EC50 is below 100 nM. On EGFR, the EC50 was below 100 nM; the “Selectivity A431 EC50/BT474 EC50” value was “D (D: ≥ 5 and < 10)”; the “Selectivity A431 EC50/HEKYVMA EC50” value is “D (D: ≥ 5 and < 10)”.

For the molecule `Cc1ccc(Oc2ccc(Nc3ncnc4sc5c(c34)CCN(C(=O)/C=C/CN3C4CCC3CC4)C5)cc2C)cn1` [Compound 44], the EC50 in test [1] was below 100 nM. Moreover, at EGFR, the EC50 lay in the range of 100 to 1000 nM; the “Selectivity A431 EC50/BT474 EC50” value is “D (D: ≥ 5 and < 10)”; the “Selectivity A431 EC50/HEKYVMA EC50” value was “E (E: >1 and < 5)”.

As for `C=CC(=O)N1CCc2c(sc3ncnc(Nc4ccc(Oc5ccc6ncnn6c5)c(Cl)c4)c23)C1` [Compound 4, 1-(4-((4-([1,2,4]triazolo[1,5-a]pyridin-6-yloxy)-3-chlorophenyl)amino)-5,8-dihydropyrido[4′,3′:4,5]thieno[2,3-d]pyrimidin-7(6H)-yl)prop-2-en-1-one], in test [1], the EC50 was below 100 nM. Further, at EGFR, the EC50 is 100 to 1000 nM; the “Selectivity A431 EC50/BT474 EC50” value is “B (B: ≥ 20 and < 100)”; the “Selectivity A431 EC50/HEKYVMA EC50” value is reported as “A (A: ≥100)”.

On to `Cc1cc(Nc2ncnc3sc4c(c23)CCN(C(=O)/C=C/CN(C)C)C4)ccc1Oc1ccc2[nH]ncc2c1` [Compound 22, (E)-1-(4-((4-((1H-indazol-5-yl)oxy)-3-methylphenyl)amino)-5,8-dihydropyrido[4′,3′:4,5]thieno[2,3-d]pyrimidin-7(6H)-yl)-4-(dimethylamino)but-2-en-1-one], for which, in test [1], the concentration for a half-maximal effect (EC50) was below 100 nM. Further, at EGFR, the half-maximal effective concentration (EC50) is below 100 nM; the “Selectivity A431 EC50/BT474 EC50” value was “D (D: ≥ 5 and < 10)”; the “Selectivity A431 EC50/HEKYVMA EC50” value is “E (E: >1 and < 5)”.

Turning to `Cc1ccc(Oc2ccc(Nc3ncnc4sc5c(c34)CCN(C(=O)/C=C/CN3CC4C(CO)C4C3)C5)cc2C)cn1` (centres unmarked) [Compound 34], the EC50 in test [1] was below 100 nM. Besides, on EGFR, the EC50 lay in the range of 100 to 1000 nM; the “Selectivity A431 EC50/BT474 EC50” value is “C (C: ≥ 10 and < 20)”; the “Selectivity A431 EC50/HEKYVMA EC50” value was “E (E: >1 and < 5)”.

In test [1], `Cc1cc(Nc2ncnc3sc4c(c23)CCN(C(=O)/C=C/CN2CC3CC(C3)C2)C4)ccc1Oc1ccc2ncnn2c1` [Compound 82] returned an EC50 below 100 nM. In addition, at EGFR, the EC50 was in the range of 100 to 1000 nM; the “Selectivity A431 EC50/BT474 EC50” value is “C (C: ≥ 10 and < 20)”; the “Selectivity A431 EC50/HEKYVMA EC50” value was “C (C: ≥ 10 and < 20)”.

In test [1], `Cc1ccc(Oc2ccc(Nc3ncnc4sc5c(c34)C(C)CN(C(=O)/C=C/CN(C)C)C5)cc2C)cn1` (centres unmarked) [Compound 98, (E)-4-(dimethylamino)-1-(5-methyl-4-((3-methyl-4-((6-methylpyridin-3-yl)oxy)phenyl)amino)-5,8-dihydropyrido[4′,3′:4,5]thieno[2,3-d]pyrimidin-7(6H)-yl)but-2-en-1-one] had an EC50 below 100 nM. Further, at EGFR, the EC50 lay in the range of 100 to 1000 nM; the “Selectivity A431 EC50/BT474 EC50” value is “C (C: ≥ 10 and < 20)”; the “Selectivity A431 EC50/HEKYVMA EC50” value was “D (D: ≥ 5 and < 10)”.

With `Cc1ccc(Oc2ccc(Nc3ncnc4sc5c(c34)CCN(C(=O)/C=C/CN[C@H]3CC[C@H](OCC(F)(F)F)CC3)C5)cc2C)cn1` [Compound 70], the EC50 in test [1] was below 100 nM. In addition, on EGFR, the EC50 is below 100 nM; the “Selectivity A431 EC50/BT474 EC50” value was “D (D: ≥ 5 and < 10)”; the “Selectivity A431 EC50/HEKYVMA EC50” value was “E (E: >1 and < 5)”.

As for `Cc1ccc(Oc2ccc(Nc3ncnc4sc5c(c34)CCN(C(=O)/C=C/CN3CC4CC4C3)C5)cc2C)cn1` (centres unmarked) [Compound 76], in test [1], the EC50 is below 100 nM. Also, on EGFR, the EC50 was below 100 nM; the “Selectivity A431 EC50/BT474 EC50” value was “C (C: ≥ 10 and < 20)”; the “Selectivity A431 EC50/HEKYVMA EC50” value was “C (C: ≥ 10 and < 20)”.

Consider `O=C(/C=C/CN1CC2C(CO)C2C1)N1CCc2c(sc3ncnc(Nc4ccc(Oc5ccc6ncnn6c5)c(Cl)c4)c23)C1` (centres unmarked) [Compound 92], for which the EC50 in test [1] is below 100 nM. For the same molecule, on EGFR, the EC50 was below 100 nM; the “Selectivity A431 EC50/BT474 EC50” value is “C (C: ≥ 10 and < 20)”; the “Selectivity A431 EC50/HEKYVMA EC50” value is “C (C: ≥ 10 and < 20)”.

`Cc1ccc(Oc2ccc(Nc3ncnc4sc5c(c34)CCN(C(=O)/C=C/CN3CC4(C3)CS(=O)(=O)C4)C5)cc2C)cn1` [Compound 57]: in test [1], the EC50 was below 100 nM. On EGFR, the EC50 is below 100 nM; the “Selectivity A431 EC50/BT474 EC50” value was “D (D: ≥ 5 and < 10)”; the “Selectivity A431 EC50/HEKYVMA EC50” value is “D (D: ≥ 5 and < 10)”.

As to `Cc1ccc(Oc2ccc(Nc3ncnc4sc5c(c34)CCN(C(=O)/C=C/CNC3COC3)C5)cc2C)cn1` [Compound 38], in test [1], the EC50 is below 100 nM. Besides, at EGFR, the EC50 is 100 to 1000 nM; the “Selectivity A431 EC50/BT474 EC50” value is “C (C: ≥ 10 and < 20)”; the “Selectivity A431 EC50/HEKYVMA EC50” value is “D (D: ≥ 5 and < 10)”.

For the molecule `Cc1ccc(Oc2ccc(Nc3ncnc4sc5c(c34)CCN(C(=O)/C=C/CN3C[C@H]4CC[C@@H](C3)O4)C5)cc2C)cn1` [Compound 66], the EC50 in test [1] is below 100 nM. In addition, at EGFR, the EC50 is 100 to 1000 nM; the “Selectivity A431 EC50/BT474 EC50” value was “C (C: ≥ 10 and < 20)”; the “Selectivity A431 EC50/HEKYVMA EC50” value is “C (C: ≥ 10 and < 20)”.

`Cc1ccc(Oc2ccc(Nc3ncnc4sc5c(c34)CCN(C(=O)/C=C/CNC3CCOC3)C5)cc2C)cn1` (centres unmarked) [Compound 47] showed an EC50 in test [1] below 100 nM. For the same molecule, on EGFR, the EC50 lay in the range of 100 to 1000 nM; the “Selectivity A431 EC50/BT474 EC50” value was “C (C: ≥ 10 and < 20)”; the “Selectivity A431 EC50/HEKYVMA EC50” value is “C (C: ≥ 10 and < 20)”.

`Cc1ccc(Oc2ccc(Nc3ncnc4sc5c(c34)CCN(C(=O)/C=C/CN[C@H]3CC[C@H](OC4CC4)CC3)C5)cc2C)cn1` [Compound 68]: the EC50 in test [1] was below 100 nM. For the same molecule, on EGFR, the EC50 was below 100 nM; the “Selectivity A431 EC50/BT474 EC50” value was “D (D: ≥ 5 and < 10)”; the “Selectivity A431 EC50/HEKYVMA EC50” value is “E (E: >1 and < 5)”.

In test [1], `Cc1ccc(Oc2ccc(Nc3ncnc4sc5c(c34)CCN(C(=O)/C=C/CNC3CCC(C(=O)N(C)C)CC3)C5)cc2C)cn1` (centres unmarked) [Compound 71] registered an EC50 below 100 nM. At EGFR, the EC50 was below 100 nM; the “Selectivity A431 EC50/BT474 EC50” value is “A (A: ≥100)”; the “Selectivity A431 EC50/HEKYVMA EC50” value was “E (E: >1 and < 5)”.

(Values after US20240391931A1 (Bristol-Myers Squibb Company, priority 2021, published 2024).)
